Columns and labels:
HiBiT-tagged MDM2 = target: T1, HiBiT-tagged MDM2 (Homo sapiens, UniProt Q00987); assay: MDM2 HiBit HEK293T degradation; assay type: cell-based; details: HEK293T cells stably expressing C-terminally HiBiT-tagged MDM2; 4 h; read-out: MDM2 HiBit HEK293T degradation 4 h: Average external-Abs DC50
T1 construct: expressed in transfected cells
Procedure, shortened: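 Degradation was measured in HEK293T cells stably expressing C-terminally HiBiT-tagged MDM2, a pool selected with 1 microgram/ml puromycin. A MDM2 tool degrader and HaloPROTAC3 served as positive controls. Potency is reported as DC50 in letter bins.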

RS411 cells = assay: Cell Viability CTG Assay; assay type: cell-based; details: Homo sapiens, RS4-11, CellTiter Glo (CTG) cell viability, read-out: Average external-IC50
Method: Compounds or DMSO 60 nL were stamped to the cell plate as the platemap. RS411 cells were centrifuged at 800 rpm for 5 min, suspended with culture medium, and counted with Countess (Invitrogen). The cell density was adjusted to the recommend information. 30 μL of cell solution (1000 cells/well) was added to the assay plate as the platemap and 30 μL of media was added to column 2 and column 23 as the platemap. The plate was spun down briefly. The final concentration of the compounds started at 10 μM (3 fold dilution and 11 doses) and final DMSO concentration was 0.2%. The plate was spun down briefly and incubated at 37° C., 5% CO2 for 1 day. […] 30 μL CellTiter Glo reagent was added to each well and the plate was centrifuged at 1000 rpm for 30 sec. The plate was shaken for 1 min and centrifuged at 1000 rpm for 30 sec. The plate was incubated at RT for 10 min to stabilize the luminescent signal and the luminescence was read by EnVision.
The letter codes for IC50 indicate the concentration of compound required to affect 50% of cells: A (<0.005 μM), B (0.005-0.05 μM), C (0.05-0.5 μM), and D (>0.5 μM).

T1 sequence (Q00987 whole entry): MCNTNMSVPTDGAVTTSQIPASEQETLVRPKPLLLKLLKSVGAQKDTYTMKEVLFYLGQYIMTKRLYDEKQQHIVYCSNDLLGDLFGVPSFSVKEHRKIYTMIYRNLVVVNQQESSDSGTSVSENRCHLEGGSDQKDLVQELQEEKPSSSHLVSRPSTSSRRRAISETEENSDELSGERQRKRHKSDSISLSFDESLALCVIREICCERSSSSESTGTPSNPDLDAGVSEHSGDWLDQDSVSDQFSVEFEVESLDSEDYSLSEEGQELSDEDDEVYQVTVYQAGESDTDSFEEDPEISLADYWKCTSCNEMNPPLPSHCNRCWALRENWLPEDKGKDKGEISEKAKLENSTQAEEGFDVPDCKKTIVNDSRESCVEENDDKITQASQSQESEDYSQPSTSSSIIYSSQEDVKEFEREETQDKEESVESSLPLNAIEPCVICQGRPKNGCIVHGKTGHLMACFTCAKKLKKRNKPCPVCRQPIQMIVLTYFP

| Structure (SMILES) | DC50 (HiBiT-tagged MDM2) [µM] | IC50 (RS411 cells) [µM] |
| --- | --- | --- |
| COc1cc2c(cc1OC(C)C)[C@H](c1ccc(Cl)cc1)N(c1ccc(N(C)CC(=O)N3CCN(CCCCCCc4ccc5c(c4)n(C)c(=O)n5C4CCC(=O)NC4=O)CC3)cc1)C(=O)C2 (stereo partly drawn) [I-48] | > 1 | > 0.5 |
| Cn1c(=O)n(C2CCC(=O)NC2=O)c2ccc(CN3CCC(OC4CN(C[C@H]5CC[C@H](NC(=O)[C@@H]6NC7(CCCCC7)[C@@]7(C(=O)Nc8cc(Cl)ccc87)[C@H]6c6cccc(Cl)c6F)CC5)C4)CC3)cc21 (stereo partly drawn) [I-49] | < 0.01 | 0.005 to 0.05 |
| CC1(C)CCC2(CC1)NC(C(=O)NC1CCC(CN3CCN(CC#Cc4ccn5c(N6CCC(=O)NC6=O)cnc5c4)CC3)CC1)[C@H](c1ccnc(Cl)c1F)[C@]21C(=O)Nc2cc(Cl)ccc21 (stereo partly drawn) [I-50] | < 0.01 | 0.005 to 0.05 |
| COc1cc2c(cc1OC(C)C)[C@H](c1ccc(Cl)cc1)N(c1ccc(N(C)CCC3CCN(CCCCC#Cc4ccn5c(N6CCC(=O)NC6=O)cnc5c4)CC3)cc1)C(=O)C2 [I-51] | 0.01 to 0.1 | 0.05 to 0.5 |
| Cn1c(=O)n(C2CCC(=O)NC2=O)c2ccc(C3CCN(C[C@H]4CC[C@H](NC(=O)[C@@H]5NC6(CCCCC6)[C@@]6(C(=O)Nc7cc(Cl)ccc76)[C@H]5c5cccc(Cl)c5F)CC4)CC3(F)F)cc21 (stereo partly drawn) [I-52] | < 0.01 | < 0.005 |
| COc1cc2c(cc1OC(C)C)[C@H](c1ccc(Cl)cc1)N(c1ccc(N(C)CC3CCN(CCCc4ccc5c(c4)n(C)c(=O)n5C4CCC(=O)NC4=O)CC3)cc1)C(=O)C2 (stereo partly drawn) [I-53] | 0.01 to 0.1 | < 0.005 |
| Cn1c(=O)n(C2CCC(=O)NC2=O)c2ccc(CCCN3CCN(C[C@H]4CC[C@H](NC(=O)[C@@H]5NC6(CCCCC6)[C@@]6(C(=O)Nc7cc(Cl)ccc76)[C@H]5c5cccc(Cl)c5F)CC4)C(=O)C3)cc21 (stereo partly drawn) [I-54] | < 0.01 | 0.005 to 0.05 |
| Cc1ccc2c(c1)NC(=O)[C@]21[C@@H](c2cccc(C)c2F)[C@H](C(=O)N[C@H]2CC[C@H](C(=O)N3CCN(CCCc4ccc5c(c4)n(C)c(=O)n5C4CCC(=O)NC4=O)CC3)CC2)NC12CCCCC2 (stereo partly drawn) [I-55] | 0.01 to 0.1 | > 0.5 |
| Cn1c(=O)n(C2CCC(=O)NC2=O)c2ccc(CCCN3CCN(C[C@H]4CC[C@H](NC(=O)[C@@H]5NC6(CCC(C)(C)CC6)[C@@]6(C(=O)Nc7cc(Cl)ccc76)[C@H]5c5ccnc(Cl)c5F)CC4)C(=O)C3)cc21 (stereo partly drawn) [I-56] | < 0.01 | < 0.005 |
| Cc1ccc2c(c1)NC(=O)[C@]21[C@@H](c2cccc(Cl)c2F)[C@H](C(=O)N[C@H]2CC[C@H](C(=O)N3CCN(CCCc4ccc5c(c4)n(C)c(=O)n5C4CCC(=O)NC4=O)CC3)CC2)NC12CCCCC2 (stereo partly drawn) [I-57] | < 0.01 | < 0.005 |
| Cn1c(=O)n(C2CCC(=O)NC2=O)c2ccc(C(=O)N3CC(OC4CN(C[C@H]5CC[C@H](NC(=O)[C@@H]6NC7(CCCCC7)[C@@]7(C(=O)Nc8cc(Cl)ccc87)[C@H]6c6cccc(Cl)c6F)CC5)C4)C3)cc21 (stereo partly drawn) [I-58] | < 0.01 | 0.005 to 0.05 |
| Cn1c(=O)n(C2CCC(=O)NC2=O)c2ccc(CN3CC(OC4CN(C[C@H]5CC[C@H](NC(=O)[C@@H]6NC7(CCCCC7)[C@@]7(C(=O)Nc8cc(Cl)ccc87)[C@H]6c6cccc(Cl)c6F)CC5)C4)C3)cc21 (stereo partly drawn) [I-59] | < 0.01 | 0.005 to 0.05 |
| COc1cc2c(cc1OC(C)C)[C@H](c1ccc(Cl)cc1)N(c1ccc(N(C)C[C@H]3CC[C@H](N4CCN(Cc5ccc6c(c5)n(C)c(=O)n6C5CCC(=O)NC5=O)CC4)CC3)cc1)C(=O)C2 (stereo partly drawn) [I-60] | < 0.01 | < 0.005 |
| COc1cc2c(cc1OC(C)C)C(c1ccc(Cl)cc1)N(C1CCC(N(C)CC3CCN(CCCCCCc4ccc5c(c4)n(C)c(=O)n5C4CCC(=O)NC4=O)CC3)CC1)C(=O)C2 (stereo not drawn) [I-61] | > 1 | > 0.5 |
| COc1cc2c(cc1OC(C)C)[C@H](c1ccc(Cl)cc1)N(c1ccc(N(C)CC3CCN(c4ccc5c(c4)n(C)c(=O)n5C4CCC(=O)NC4=O)CC3)cc1)C(=O)C2 (stereo partly drawn) [I-62] | < 0.01 | 0.005 to 0.05 |

Now from value to compound:

| DC50 (HiBiT-tagged MDM2) [µM] | IC50 (RS411 cells) [µM] | Structure (SMILES) |
| --- | --- | --- |
| < 0.01 | 0.005 to 0.05 | COc1cc2c(cc1OC(C)C)[C@H](c1ccc(Cl)cc1)N(c1ccc(N(C)C[C@H]3CC[C@H](N4CCN(CCc5cccc6c5n(C)c(=O)n6C5CCC(=O)NC5=O)CC4)CC3)cc1)C(=O)C2 (stereo partly drawn) [I-63] |
| 0.01 to 0.1 | 0.005 to 0.05 | CC(C)[C@@H](CS(=O)(=O)C(C)C)N1C(=O)[C@@](C)(CC(=O)N[C@H]2CC[C@H](CN3CCN(CCCc4ccc5c(c4)n(C)c(=O)n5C4CCC(=O)NC4=O)CC3)CC2)C[C@H](c2cccc(Cl)c2)[C@H]1c1ccc(Cl)cc1 (stereo partly drawn) [I-64] |
| 0.01 to 0.1 | 0.005 to 0.05 | COc1cc2c(cc1OC(C)C)[C@H](c1ccc(Cl)cc1)N(c1ccc(N(C)C[C@H]3CC[C@H](N4C[C@@H]5C[C@H]4CN5CCc4ccc5c(c4)n(C)c(=O)n5C4CCC(=O)NC4=O)CC3)cc1)C(=O)C2 (stereo partly drawn) [I-65] |
| < 0.01 | 0.005 to 0.05 | CC1(C)CCC2(CC1)N[C@@H](C(=O)N[C@H]1CC[C@H](CN3CCN(CCCc4cccn5c(N6CCC(=O)NC6=O)cnc45)CC3)CC1)[C@H](c1ccnc(Cl)c1F)[C@]21C(=O)Nc2cc(Cl)ccc21 [I-67] |
| < 0.01 | 0.005 to 0.05 | Cn1c(=O)n(C2CCC(=O)NC2=O)c2ccc(CN3CCN(C[C@H]4CC[C@H](NC(=O)[C@@H]5NC6(CCCCC6)[C@@]6(C(=O)Nc7cc(Cl)ccc76)[C@H]5c5cccc(Cl)c5F)CC4)CC3)cc21 (stereo partly drawn) [I-69] |
| < 0.01 | < 0.005 | Cn1c(=O)n(C2CCC(=O)NC2=O)c2ccc(N3CCN(CC4CCN(C[C@H]5CC[C@H](NC(=O)[C@@H]6NC7(CCCCC7)[C@@]7(C(=O)Nc8cc(Cl)ccc87)[C@H]6c6cccc(Cl)c6F)CC5)CC4)CC3)cc21 (stereo partly drawn) [I-70] |
| < 0.01 | < 0.005 | COc1cc2c(cc1OC(C)C)[C@H](c1ccc(Cl)cc1)N(c1ccc(N(C)C[C@H]3CC[C@H](N4CCN(c5ccc6c(c5)n(C)c(=O)n6C5CCC(=O)NC5=O)CC4)CC3)cc1)C(=O)C2 (stereo partly drawn) [I-71, 3-[5-[4-[4-[[4-[(1S)-1-(4-chlorophenyl)-7-isopropoxy-6-methoxy-3-oxo-1,4-dihydroisoquinolin-2-yl]-N-methyl-anilino]methyl]cyclohexyl]piperazin-1-yl]-3-methyl-2-oxo-benzimidazol-1-yl]piperidine-2,6-dione] |
| < 0.01 | < 0.005 | Cn1c(=O)n(C2CCC(=O)NC2=O)c2ccc(CCCN3CCN(C[C@H]4CC[C@H](NC(=O)[C@@H]5NC6(CCC(C)(C)CC6)[C@@]6(C(=O)Nc7cc(Cl)ccc76)[C@H]5c5cccc(Cl)c5F)CC4)CC3)cc21 (stereo partly drawn) [I-72] |
| < 0.01 | < 0.005 | COc1cc2c(cc1OC(C)C)[C@H](c1ccc(Cl)cc1)N(c1ccc(N(C)C[C@H]3CC[C@H](N4CCC(c5ccc6c(c5)n(C)c(=O)n6C5CCC(=O)NC5=O)CC4)CC3)cc1)C(=O)C2 (stereo partly drawn) [I-73] |
| < 0.01 | 0.005 to 0.05 | COc1cc2c(cc1OC(C)C)[C@H](c1ccc(Cl)cc1)N(c1ccc(N(C)C[C@H]3CC[C@H](c4ccc5c(c4)n(C)c(=O)n5C4CCC(=O)NC4=O)CC3)cc1)C(=O)C2 (stereo partly drawn) [I-74] |
| < 0.01 | 0.005 to 0.05 | CN1[C@@H](C(=O)N[C@H]2CC[C@H](CN3CC4(CCN(CCc5ccc6c(c5)n(C)c(=O)n6C5CCC(=O)NC5=O)CC4)C3)CC2)[C@H](c2cccc(Cl)c2F)[C@]2(C(=O)Nc3cc(Cl)ccc32)C12CCCCC2 (stereo partly drawn) [I-75] |
| < 0.01 | < 0.005 | Cn1c(=O)n(C2CCC(=O)NC2=O)c2ccc(C3CCN(C[C@@H]4CC[C@@H](NC(=O)[C@@H]5NC6(CCC(C)(C)CC6)[C@@]6(C(=O)Nc7cc(Cl)ccc76)[C@H]5c5ccnc(Cl)c5F)CO4)CC3)cc21 (stereo partly drawn) [I-76] |
| < 0.01 | 0.005 to 0.05 | Cn1c(=O)n(C2CCC(=O)NC2=O)c2ccc(C#CC3CCN(C[C@H]4CC[C@H](NC(=O)[C@@H]5NC6(CCC(C)(C)CC6)[C@@]6(C(=O)Nc7cc(Cl)ccc76)[C@H]5c5ccnc(Cl)c5F)CC4)C(=O)C3)cc21 (stereo partly drawn) [I-77] |
| < 0.01 | < 0.005 | Cn1c(=O)n(C2CCC(=O)NC2=O)c2ccc(CCN3CCN(CCCN4CCC(NC(=O)[C@@H]5NC6(CCCCC6)[C@@]6(C(=O)Nc7cc(Cl)ccc76)[C@H]5c5cccc(Cl)c5F)CC4)CC3)cc21 (stereo partly drawn) [I-78] |
| < 0.01 | > 0.5 | CCCc1ccc2c(c1)NC(=O)[C@]21[C@@H](c2cccc(Cl)c2F)[C@H](C(=O)N[C@H]2CC[C@H](CN3CCC(c4ccc5c(c4)n(C)c(=O)n5C4CCC(=O)NC4=O)CC3)CC2)NC12CCCCC2 (stereo partly drawn) [I-79] |
| < 0.01 | < 0.005 | Cn1c(=O)n(C2CCC(=O)NC2=O)c2ccc(C3CCN(S(=O)(=O)NC(=O)[C@H]4CC[C@H](NC(=O)[C@@H]5NC6(CCCCC6)[C@@]6(C(=O)Nc7cc(Cl)ccc76)[C@H]5c5cccc(Cl)c5F)CC4)CC3)cc21 (stereo partly drawn) [I-80] |
| < 0.01 | < 0.005 | Cc1ccc2c(c1)NC(=O)[C@]21[C@@H](c2cccc(Cl)c2F)[C@H](C(=O)N[C@H]2CC[C@H](C(=O)N3CCC(c4ccc5c(c4)n(C)c(=O)n5C4CCC(=O)NC4=O)CC3)CC2)NC12CCCCC2 (stereo partly drawn) [I-81] |
| 0.01 to 0.1 | 0.005 to 0.05 | O=C(O)CCn1c(=O)n(C2CCC(=O)NC2=O)c2ccc(C3CCN(C(=O)[C@H]4CC[C@H](NC(=O)[C@@H]5NC6(CCCCC6)[C@@]6(C(=O)Nc7cc(Cl)ccc76)[C@H]5c5cccc(Cl)c5F)CC4)CC3)cc21 (stereo partly drawn) [I-82] |

Reference: US20250034147A1, “MDM2 DEGRADERS AND USES THEREOF” (Kymera Therapeutics, Inc., priority 2021, published 2025)
